The subject of data set [1] is Spontaneously hypertensive rat (SHR). Kind of data set: Hypotensive effect: oral administration to SHR (no anesthesia), plethysmographic tail method. Format: in vivo, Okamoto Strain, male). How it is done:
(2) Oral Administration to SHR (no anesthesia)
Change in systolic blood pressure when drugs were orally administered to spontaneously hypertensive rat (SHR) (Okamoto Strain, aging 15 to 26 weeks, male) was measured by the plethysmographic tail method (Ueda Seisakusho, USM-105R).
Drugs were compulsorily orally administered at the dose of 0.5 ml/100 g body weight of the rat in the form of a suspension in 0.3% carboxymethyl cellulose, using a gastric tube.

Data set [2] has the same test system. The data set can be described thus: Hypotensive effect: intravenous administration to SHR (no anesthesia). Format: in vivo, Okamoto strain, male). The conditions noted are these: 5 animals. The procedure:
(1.) Intravenous Administration to SHR (no anesthesia)
Spontaneously hypertensive rat (SHR) (Okamoto strain, aging 20 to 30 weeks, male) were anesthetized with sodium thiopental (50 mg/kg, ip). A cannula for measuring blood pressure was inserted into the descending aorta from the right femoral artery and a cannula for intravenous administration was inserted into the left carotid vein, and these cannulas were fixed on the […], respectively. Change in blood pressure by intravenous administration of each of drugs were measured next day without any anesthesia. As the drugs, a solution of each of the drugs in polyethylene glycol 400 was intravenously administered at the dose of 0.1 ml/100 g body weight of the rat.

A short description of data set [3]: Acute toxicity, oral administration to mice (survival rate 72 hours after administration). Format: in vivo, mice (ddY type. Conditions: mouse, in vivo, mice ddY male. The procedure: (§1) Drugs were compulsorily orally administered to mice (ddY type, body weight of 20 to 24 g, male) and the survival rate 72 hours after the administration was studied. A suspension of each of the drugs in water having added a small quantity of Tween 80 thereto was orally given at the dose of 0.1 ml/10 g mouse body weight, using a gastric tube.

Data set [4] in a line: LD50 in the oral administration in male rats. The conditions noted are these: rat, in vivo.
Data set [5] in a line: Hypotensive effect (general statement). It is filed as in vivo. The conditions noted are these: among the (±)-α-form.
For data set [6], the system named is mice. The data set can be described thus: Acute toxicity, oral administration to mice (survival rate 72 hours after administration). The conditions noted are these: mice ddY male, hydrochloride, 4320 min. It is filed as in vivo, mice (ddY type. How it is done:
as §1

Each structure is given as a SMILES string. Counter-ions that a name gives are not always drawn.

As usually defined, the LD50 is the dose expected to kill half of the subjects tested. On to `COC(=O)C1=C(C)NC(C)=C(C(=O)OC2CCCN(Cc3ccccc3)C2)C1c1cccc([N+](=O)[O-])c1` (racemic) [(±)-α-form, (±)-2,6-dimethyl-4-(3-nitrophenyl)-1,4-dihydropyridine-3,5-dicarboxylicacid-3-(1-benzyl-3-piperidyl)ester-5-methyl ester], for which the “Maximum Decrease in Systolic Blood Pressure” value in data set [1] (1 mg/kg p.o., 8 animals) turned out to be 35.6 ± 6.3 mmHg. The “Maximum Decrease in Mean Blood Pressure” value in data set [2] (1 μg/kg i.v.) came out at 23.1 ± 6.4 mmHg; in data set [2] (10 μg/kg i.v.), 45.6 ± 6.5 mmHg. The LD50 at 72 h in data set [3] was 218 mg/kg.

For `COC(=O)C1=C(C)NC(C)=C(C(=O)OC2CCCN(Cc3ccccc3)C2)C1c1cccc([N+](=O)[O-])c1` (single isomer, unassigned) [(+)-α-form, (+)-α-2,6-dimethyl-4-(3-nitrophenyl)-1,4-dihydropyridine-3,5-dicarboxylic acid-3-(1-benzyl-3-piperidyl)ester-5-methyl ester hydrochloride], the LD50 in data set [4] was 95 mg/kg. Further, the “Maximum Decrease in Systolic Blood Pressure” value in data set [1] (1 mg/kg p.o., 8 animals) worked out at 56.3 ± 13.0 mmHg. In addition, the hypotensive effect entry in data set [5] is reported as “excellent hypotensive effect”. The “Maximum Decrease in Mean Blood Pressure” value in data set [2] (1 μg/kg i.v.) is 42.2 ± 11.5 mmHg; in data set [2] (10 μg/kg i.v., hydrochloride), 67.4 ± 4.7 mmHg. In data set [6], the “Acute Toxicity LD50” value worked out at 95 mg/kg.

Take `COC(=O)C1=C(C)NC(C)=C(C(=O)OC2CCCN(Cc3ccccc3)C2)C1c1cccc([N+](=O)[O-])c1` (single isomer, unassigned) [(-)-α-form, (-)-α-2,6-dimethyl-4-(3-nitrophenyl)-1,4-dihydropyridine-3,5-dicarboxylic acid-3-(1-benzyl-3-piperidyl)ester-5-methyl ester hydrochloride]: the “Maximum Decrease in Systolic Blood Pressure” value in data set [1] (3 mg/kg p.o., 4 animals) is on record as 22.5 ± 9.6 mmHg; in data set [1] (10 mg/kg p.o., 4 animals), 30.0 ± 5.3 mmHg. The “Maximum Decrease in Mean Blood Pressure” value stood at 23.4 ± 7.9 mmHg in data set [2] (10 μg/kg i.v., hydrochloride) and 27.3 ± 6.1 mmHg in data set [2] (100 μg/kg i.v.). For the same compound, the “Acute Toxicity LD50” value in data set [6] came out at 918 mg/kg.
